Test results: PubChem BioAssay AID1259407 (Chemical Carcinogenesis Research Information System (CCRIS), 2018)
The source made the active and inactive calls. No rule for the calls is given here.

Test system: CCRIS mutagenicity, Ames/micronucleus/aberration tests
Experiment: CCRIS mutagenicity studies
[1] = Test System: AMES SALMONELLA TYPHIMURIUM, Strain/Indicator: TA98, Metabolic Activation: NONE, Method: PREINCUBATION
[2] = Test System: AMES SALMONELLA TYPHIMURIUM, Strain/Indicator: TA100, Metabolic Activation: NONE, Method: PREINCUBATION
[3] = Test System: AMES SALMONELLA TYPHIMURIUM, Strain/Indicator: TA98, Metabolic Activation: NONE, Method: STANDARD PLATE
[4] = Test System: AMES SALMONELLA TYPHIMURIUM, Strain/Indicator: TA100, Metabolic Activation: NONE, Method: STANDARD PLATE

Which results are given for `COC=O`?
mutagenic call (Test System: AMES SALMONELLA TYPHIMURIUM, Strain/Indicator: TA97, Metabolic Activation: HAMSTER, LIVER, S-9, AROCLOR 1254 (10 OR 30%), Method: PREINCUBATION): inactive; negative; mutagenic call (Test System: AMES SALMONELLA TYPHIMURIUM, Strain/Indicator: TA97, Metabolic Activation: NONE, Method: PREINCUBATION): inactive; negative; mutagenic call (Test System: AMES SALMONELLA TYPHIMURIUM, Strain/Indicator: TA97, Metabolic Activation: RAT, LIVER, S-9, AROCLOR 1254 (10 OR 30%), Method: PREINCUBATION): inactive; negative; mutagenic call (Test System: AMES SALMONELLA TYPHIMURIUM, Strain/Indicator: TA98, Metabolic Activation: HAMSTER, LIVER, S-9, AROCLOR 1254 (10 OR 30%), Method: PREINCUBATION): inactive; negative; mutagenic call (Test System: AMES SALMONELLA TYPHIMURIUM, Strain/Indicator: TA98, Metabolic Activation: NONE, Method: GAS EXPOSURE): inactive; negative; mutagenic call [1]: inactive; negative; mutagenic call (Test System: AMES SALMONELLA TYPHIMURIUM, Strain/Indicator: TA98, Metabolic Activation: RAT, LIVER, S-9, AROCLOR 1254 (10 OR 30%), Method: PREINCUBATION): inactive; negative; mutagenic call (Test System: AMES SALMONELLA TYPHIMURIUM, Strain/Indicator: TA98, Metabolic Activation: RAT, LIVER, S-9, SODIUM PHENOBARBITAL AND 5,6-BENZOFLAVONE, Method: GAS EXPOSURE): inactive; negative; mutagenic call (Test System: AMES SALMONELLA TYPHIMURIUM, Strain/Indicator: TA100, Metabolic Activation: HAMSTER, LIVER, S-9, AROCLOR 1254 (10 OR 30%), Method: PREINCUBATION): inactive; negative; mutagenic call (Test System: AMES SALMONELLA TYPHIMURIUM, Strain/Indicator: TA100, Metabolic Activation: NONE, Method: GAS EXPOSURE): inactive; negative; mutagenic call [2]: inactive; negative; mutagenic call (Test System: AMES SALMONELLA TYPHIMURIUM, Strain/Indicator: TA100, Metabolic Activation: RAT, LIVER, S-9, AROCLOR 1254 (10 OR 30%), Method: PREINCUBATION): inactive; negative; mutagenic call (Test System: AMES SALMONELLA TYPHIMURIUM, Strain/Indicator: TA100, Metabolic Activation: RAT, LIVER, S-9, SODIUM PHENOBARBITAL AND 5,6-BENZOFLAVONE, Method: GAS EXPOSURE): inactive; negative; mutagenic call (Test System: AMES SALMONELLA TYPHIMURIUM, Strain/Indicator: TA1535, Metabolic Activation: HAMSTER, LIVER, S-9, AROCLOR 1254 (10 OR 30%), Method: PREINCUBATION): inactive; negative; mutagenic call (Test System: AMES SALMONELLA TYPHIMURIUM, Strain/Indicator: TA1535, Metabolic Activation: NONE, Method: GAS EXPOSURE): inactive; negative; mutagenic call (Test System: AMES SALMONELLA TYPHIMURIUM, Strain/Indicator: TA1535, Metabolic Activation: NONE, Method: PREINCUBATION): inactive; negative; mutagenic call (Test System: AMES SALMONELLA TYPHIMURIUM, Strain/Indicator: TA1535, Metabolic Activation: RAT, LIVER, S-9, AROCLOR 1254 (10 OR 30%), Method: PREINCUBATION): inactive; negative; mutagenic call (Test System: AMES SALMONELLA TYPHIMURIUM, Strain/Indicator: TA1535, Metabolic Activation: RAT, LIVER, S-9, SODIUM PHENOBARBITAL AND 5,6-BENZOFLAVONE, Method: GAS EXPOSURE): inactive; negative; mutagenic call (Test System: AMES SALMONELLA TYPHIMURIUM, Strain/Indicator: TA1537, Metabolic Activation: NONE, Method: GAS EXPOSURE): inactive; negative; mutagenic call (Test System: AMES SALMONELLA TYPHIMURIUM, Strain/Indicator: TA1537, Metabolic Activation: RAT, LIVER, S-9, SODIUM PHENOBARBITAL AND 5,6-BENZOFLAVONE, Method: GAS EXPOSURE): inactive; negative; mutagenic call (Test System: E. COLI, Strain/Indicator: WP2UVRA, Metabolic Activation: NONE, Method: GAS EXPOSURE): inactive; negative; mutagenic call (Test System: E. COLI, Strain/Indicator: WP2UVRA, Metabolic Activation: RAT, LIVER, S-9, PHENOBARBITAL AND BETA--NAPHTHOFLAVONE, Method: GAS EXPOSURE): inactive; negative

Which mutagenic call (End Point: IN VITRO CHROMOSOMAL ABERRATIONS, Test System: CHO CELLS, Metabolic Activation: RAT, LIVER, S-9, AROCLOR 1254) does the source give for `[Cl][Sn][Cl]` here?
The mutagenic call was “active; positive; precipitation occurred at all doses”.

What about the mutagenic call (End Point: In vivo chromosomal aberrations, Test System: Bone marrow cells (dams), liver cells (fetuses), Species: Mouse, Strain/Sex: Swiss/Female, Route: Oral) of the same compound?
The mutagenic call was “active; positive (structural and ploidy changes)”.

What about the mutagenic call [3] of the same compound?
Its mutagenic call is “inactive; negative”.

And the mutagenic call (Test System: AMES SALMONELLA TYPHIMURIUM, Strain/Indicator: TA98, Metabolic Activation: RAT, LIVER, S-9, AROCLOR 1254, Method: STANDARD PLATE)?
Its mutagenic call is “inactive; negative”.

What about the mutagenic call [4] of the same compound?
The mutagenic call was “inactive; negative”.

And the mutagenic call (Test System: AMES SALMONELLA TYPHIMURIUM, Strain/Indicator: TA100, Metabolic Activation: RAT, LIVER, S-9, AROCLOR 1254, Method: STANDARD PLATE)?
The mutagenic call was “inactive; negative”.

What about the mutagenic call (Test System: AMES SALMONELLA TYPHIMURIUM, Strain/Indicator: TA1535, Metabolic Activation: NONE, Method: STANDARD PLATE) of the same compound?
Its mutagenic call is “inactive; negative”.

And the mutagenic call (Test System: AMES SALMONELLA TYPHIMURIUM, Strain/Indicator: TA1535, Metabolic Activation: RAT, LIVER, S-9, AROCLOR 1254, Method: STANDARD PLATE)?
Its mutagenic call is “inactive; negative”.

What about the mutagenic call (Test System: AMES SALMONELLA TYPHIMURIUM, Strain/Indicator: TA1537, Metabolic Activation: NONE, Method: STANDARD PLATE) of the same compound?
Its mutagenic call is “inactive; negative”.

What about the mutagenic call (Test System: AMES SALMONELLA TYPHIMURIUM, Strain/Indicator: TA1537, Metabolic Activation: RAT, LIVER, S-9, AROCLOR 1254, Method: STANDARD PLATE) of the same compound?
Its mutagenic call is “inactive; negative”.

And the mutagenic call (Test System: AMES SALMONELLA TYPHIMURIUM, Strain/Indicator: TA1538, Metabolic Activation: NONE, Method: STANDARD PLATE)?
Its mutagenic call is “inactive; negative”.

And the mutagenic call (Test System: AMES SALMONELLA TYPHIMURIUM, Strain/Indicator: TA1538, Metabolic Activation: RAT, LIVER, S-9, AROCLOR 1254, Method: STANDARD PLATE)?
The mutagenic call was “inactive; negative”.

And the mutagenic call (Test System: E. COLI, Strain/Indicator: WP2, Metabolic Activation: NONE, Method: STANDARD PLATE)?
Its mutagenic call is “inactive; negative”.

What about the mutagenic call (Test System: E. COLI, Strain/Indicator: WP2, Metabolic Activation: RAT, LIVER, S-9, AROCLOR 1254, Method: STANDARD PLATE) of the same compound?
The mutagenic call was “inactive; negative”.

What about the mutagenic call (Test System: E. COLI, Strain/Indicator: WP2 UVRA, Metabolic Activation: NONE, Method: SPOT TEST) of the same compound?
Its mutagenic call is “inactive; negative”.

What about the mutagenic call (Test System: UDS RAT HEPATOCYTES, Strain/Indicator: THY INCORP, Metabolic Activation: NONE) of the same compound?
The mutagenic call was “inactive; negative”.

`CC1=CC(=O)C=CC1=O` was tested. Which mutagenic call [1] did it give?
Its mutagenic call is “inactive; negative”.

And the mutagenic call (Test System: AMES SALMONELLA TYPHIMURIUM, Strain/Indicator: TA98, Metabolic Activation: RAT, LIVER, S-9, PHENOBARBITAL AND 5,6-BENZOFLAVONE, Method: PREINCUBATION)?
Its mutagenic call is “inactive; negative”.

And the mutagenic call [2]?
The mutagenic call was “inactive; negative”.

What about the mutagenic call (Test System: AMES SALMONELLA TYPHIMURIUM, Strain/Indicator: TA102, Metabolic Activation: NONE, Method: PREINCUBATION) of the same compound?
Its mutagenic call is “inactive; negative”.

And the mutagenic call (Test System: AMES SALMONELLA TYPHIMURIUM, Strain/Indicator: TA102, Metabolic Activation: RAT, LIVER, S-9, PHENOBARBITAL AND 5,6-BENZOFLAVONE, Method: PREINCUBATION)?
Its mutagenic call is “inactive; negative”.

And the mutagenic call (Test System: AMES SALMONELLA TYPHIMURIUM, Strain/Indicator: TA104, Metabolic Activation: NONE, Method: PREINCUBATION)?
Its mutagenic call is “inactive; negative”.

What about the mutagenic call (Test System: AMES SALMONELLA TYPHIMURIUM, Strain/Indicator: TA104, Metabolic Activation: RAT, LIVER, S-9, PHENOBARBITAL AND 5,6-BENZOFLAVONE, Method: PREINCUBATION) of the same compound?
The mutagenic call was “inactive; negative”.

And the mutagenic call (Test System: AMES SALMONELLA TYPHIMURIUM, Strain/Indicator: TA2637, Metabolic Activation: NONE, Method: PREINCUBATION)?
The mutagenic call was “inactive; negative”.

And the mutagenic call (Test System: AMES SALMONELLA TYPHIMURIUM, Strain/Indicator: TA2637, Metabolic Activation: RAT, LIVER, S-9, PHENOBARBITAL AND 5,6-BENZOFLAVONE, Method: PREINCUBATION)?
Its mutagenic call is “active; positive”.

How did the mutagenic call [3] turn out when `CCCC(c1cc(C(C)(C)C)c(O)cc1C)c1cc(C(C)(C)C)c(O)cc1C` was run?
The mutagenic call was “inactive; negative”.

What about the mutagenic call (Test System: AMES SALMONELLA TYPHIMURIUM, Strain/Indicator: TA98, Metabolic Activation: S-9, Method: STANDARD PLATE) of the same compound?
The mutagenic call was “inactive; negative”.

What about the mutagenic call [4] of the same compound?
Its mutagenic call is “inactive; negative”.

And the mutagenic call (Test System: AMES SALMONELLA TYPHIMURIUM, Strain/Indicator: TA100, Metabolic Activation: S-9, Method: STANDARD PLATE)?
Its mutagenic call is “inactive; negative”.
